Tested on: C. difficile
Assay: in vitro gut digestion and fermentation model (SHIME PathoGut) assessing CDI and CDI recurrence
Assay type: cell-based, Clostridium difficile
Details: control experiments (FIGS. 1 and 2); vancomycin 125 mg/L three times per day for seven days after the 4 weeks of CDI

## CN[C@H](CC(C)C)C(=O)N[C@H]1C(=O)N[C@@H](CC(N)=O)C(=O)N[C@H]2C(=O)N[C@H]3C(=O)N[C@H](C(=O)N[C@H](C(=O)O)c4cc(O)cc(O)c4-c4cc3ccc4O)[C@H](O)c3ccc(c(Cl)c3)Oc3cc2cc(c3O[C@@H]2O[C@H](CO)[C@@H](O)[C@H](O)[C@H]2O[C@H]2C[C@](C)(N)[C@H](O)[C@H](C)O2)Oc2ccc(cc2Cl)[C@H]1O [vancomycin]
  CD cell count: below detectable levels
